Reference: patent US9403808B2, “Pyrazine derivatives” (Hoffmann-La Roche Inc., priority 2011, dated 2016)

What was measured:
human CB1 receptors = human CB1 receptors (Homo sapiens (Human), UniProt P21554); assay: functional cAMP assay, CB1; assay type: cell-based; conditions: functional cAMP assay, CHO cells expressing human CB1; read-out: human CB1 EC50
Method: (§1) CHO cells expressing human CB1 or CB2 receptors are seeded 17-24 hours prior to the experiment 50.000 cells per well in a black 96 well plate with flat clear bottom (Corning Costar #3904) in DMEM (Invitrogen No. 31331), 1×HT supplement, with 10% fetal calf serum and incubated at 5% CO2 and 37° C. in a humidified incubator. The growth medium was exchanged with Krebs Ringer Bicarbonate buffer with 1 mM IBMX and incubated at 30° C. for 30 min. Compounds were added to a final assay volume of 100 μl and incubated for 30 min at 30° C. Using the cAMP-Nano-TRF detection kit the assay (Roche Diagnostics) was stopped by the addition of 50 μl lysis reagent (Tris, NaCl, 1.5% Triton X100, 2.5% NP40, 10% NaN3) and 50 μl detection solutions (20 μM mAb Alexa700-cAMP 1:1, and 48 μM Ruthenium-2-AHA-cAMP) and shaken for 2 h at room temperature. The time-resolved energy transfer is measured by a TRF reader (Evotec Technologies GmbH), equipped with a ND:YAG laser as excitation source. The plate is measured twice with the excitation at 355 nm and at the emission with a delay of 100 ns and a gate of 100 ns, total exposure time 10s at 730 (bandwidth 30 nm) or 645 nm (bandwidth 75 nm), respectively. The FRET signal is calculated as follows: FRET=T730-Alexa730-P(T645-B645) with P=Ru730-B730/Ru645-B645, where T730 is the test well measured at […], T645 is the test well measured at 645 nm, B730 and B645 are the buffer controls at 730 nm and 645 nm, respectively. cAMP content is determined from the function of a standard curve spanning from 10 μM to 0.13 nM cAMP.
(§2) EC50 values were determined using Activity Base analysis (ID Business Solution, Limited). The EC50 values for a wide range of cannabinoid agonists generated from this assay were in agreement with the values published in the scientific literature.

human CB2 receptors = human CB2 receptors (Homo sapiens (Human), UniProt P34972); assay: functional cAMP assay, CB2; assay type: cell-based; conditions: functional cAMP assay, CHO cells expressing human CB2; read-out: human CB2 EC50
Chain of human CB2 receptors (P34972 whole entry): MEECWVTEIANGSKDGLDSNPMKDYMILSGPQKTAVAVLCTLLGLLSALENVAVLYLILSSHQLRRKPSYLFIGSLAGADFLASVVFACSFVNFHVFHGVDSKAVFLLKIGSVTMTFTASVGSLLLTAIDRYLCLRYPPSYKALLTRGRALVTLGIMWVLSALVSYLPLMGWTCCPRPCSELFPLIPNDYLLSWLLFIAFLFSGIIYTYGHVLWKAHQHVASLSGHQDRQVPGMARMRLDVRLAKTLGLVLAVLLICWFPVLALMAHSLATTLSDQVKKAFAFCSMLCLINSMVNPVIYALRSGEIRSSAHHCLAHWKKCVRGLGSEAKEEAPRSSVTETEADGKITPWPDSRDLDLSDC
Method: as §1, §2

Chain of human CB1 receptors (P21554 whole entry): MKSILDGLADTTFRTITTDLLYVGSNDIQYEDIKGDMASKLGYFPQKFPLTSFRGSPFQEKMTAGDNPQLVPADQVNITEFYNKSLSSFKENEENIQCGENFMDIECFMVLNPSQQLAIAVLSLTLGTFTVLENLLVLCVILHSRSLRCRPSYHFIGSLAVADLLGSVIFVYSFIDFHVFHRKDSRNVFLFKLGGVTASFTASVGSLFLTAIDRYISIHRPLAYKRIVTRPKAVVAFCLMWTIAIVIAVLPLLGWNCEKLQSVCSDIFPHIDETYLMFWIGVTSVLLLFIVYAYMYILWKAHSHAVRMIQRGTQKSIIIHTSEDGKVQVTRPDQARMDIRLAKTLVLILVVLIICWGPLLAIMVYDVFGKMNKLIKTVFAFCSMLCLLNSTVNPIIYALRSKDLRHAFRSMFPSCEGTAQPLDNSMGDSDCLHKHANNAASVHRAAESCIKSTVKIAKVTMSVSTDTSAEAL

NC(=O)[C@H](Cc1ccccc1)NC(=O)c1cnc(C2CC2)c(OCC2CC2)n1 [Example 37, 5-Cyclopropyl-6-cyclopropylmethoxy-pyrazine-2-carboxylic acid ((S)-1-carbamoyl-2-phenyl-ethyl)-amide]
EC50 (human CB1 receptors): 1640 nM | EC50 (human CB2 receptors): 108 nM

NC(=O)[C@H](Cc1ccccc1)NC(=O)c1cnc(N2CC(F)(F)C2)c(OCC2CC2)n1 [Example 38, 6-Cyclopropylmethoxy-5-(3,3-difluoro-azetidin-1-yl)-pyrazine-2-carboxylic acid ((S)-1-carbamoyl-2-phenyl-ethyl)-amide]
EC50 (human CB1 receptors): > 10000 nM | EC50 (human CB2 receptors): 44.4 nM

NC(=O)[C@H](CC1CC1)NC(=O)c1cnc(N2CC(F)(F)C2)c(OCC2CC2)n1 [Example 39, 6-Cyclopropylmethoxy-5-(3,3-difluoro-azetidin-1-yl)-pyrazine-2-carboxylic acid ((S)-1-carbamoyl-2-cyclopropyl-ethyl)-amide]
EC50 (human CB1 receptors): > 10000 nM | EC50 (human CB2 receptors): 11 nM

CC(C)(C)[C@H](NC(=O)c1cnc(C2CC2)c(OCC2CC2)n1)C(=O)O [Example 44, (S)-2-[(5-Cyclopropyl-6-cyclopropylmethoxy-pyrazine-2-carbonyl)-amino]-3,3-dimethyl-butyric acid]
EC50 (human CB1 receptors): > 10000 nM | EC50 (human CB2 receptors): 442 nM

Cc1nc(C(C)(C)NC(=O)c2cnc(C3CC3)c(OCC3CC3)n2)no1 [Example 45, 5-Cyclopropyl-6-cyclopropylmethoxy-pyrazine-2-carboxylic acid [1-methyl-1-(5-methyl-[1,2,4]oxadiazol-3-yl)-ethyl]-amide]
EC50 (human CB1 receptors): > 10000 nM | EC50 (human CB2 receptors): 51.4 nM

C[C@H](NC(=O)c1cnc(C2CC2)c(OCC2CC2)n1)c1ccccn1 [Example 46, 5-Cyclopropyl-6-cyclopropylmethoxy-pyrazine-2-carboxylic acid ((S)-1-pyridin-2-yl-ethyl)-amide]
EC50 (human CB1 receptors): > 10000 nM | EC50 (human CB2 receptors): 291 nM

O=C(N[C@H](c1ccccn1)C(F)(F)F)c1cnc(N2CC(F)(F)C2)c(OCC2CC2)n1 [Example 47, 6-Cyclopropylmethoxy-5-(3,3-difluoro-azetidin-1-yl)-pyrazine-2-carboxylic acid ((R)-2,2,2-trifluoro-1-pyridin-2-yl-ethyl)-amide]
EC50 (human CB1 receptors): > 10000 nM | EC50 (human CB2 receptors): 72.9 nM

O=C(N[C@@H](c1ccccn1)C(F)(F)F)c1cnc(N2CC(F)(F)C2)c(OCC2CC2)n1 [Example 48, 6-Cyclopropylmethoxy-5-(3,3-difluoro-azetidin-1-yl)-pyrazine-2-carboxylic acid ((S)-2,2,2-trifluoro-1-pyridin-2-yl-ethyl)-amide]
EC50 (human CB1 receptors): > 10000 nM | EC50 (human CB2 receptors): 24.4 nM

O=C(N[C@@H](c1ccccn1)C(F)(F)F)c1cnc(C2CC2)c(OCC2CC2)n1 [Example 49, 5-Cyclopropyl-6-cyclopropylmethoxy-pyrazine-2-carboxylic acid ((S)-2,2,2-trifluoro-1-pyridin-2-yl-ethyl)-amide]
EC50 (human CB1 receptors): > 10000 nM | EC50 (human CB2 receptors): 107 nM

CCC(CC)(NC(=O)c1cnc(N2CC(F)(F)C2)c(OCC2CC2)n1)C(=O)NC [Example 50, 6-Cyclopropylmethoxy-5-(3,3-difluoro-azetidin-1-yl)-pyrazine-2-carboxylic acid (1-ethyl-1-methylcarbamoyl-propyl)-amide]
EC50 (human CB1 receptors): > 10000 nM | EC50 (human CB2 receptors): 7.4 nM

CC(C)[C@](C)(CO)NC(=O)c1cnc(C2CC2)c(OCC2CC2)n1 [Example 51, 5-Cyclopropyl-6-cyclopropylmethoxy-pyrazine-2-carboxylic acid ((R)-1-hydroxymethyl-1,2-dimethyl-propyl)-amide]
EC50 (human CB1 receptors): > 10000 nM | EC50 (human CB2 receptors): 137 nM

CC(C)[C@@](C)(CO)NC(=O)c1cnc(C2CC2)c(OCC2CC2)n1 [Example 52, 5-Cyclopropyl-6-cyclopropylmethoxy-pyrazine-2-carboxylic acid ((S)-1-hydroxymethyl-1,2-dimethyl-propyl)-amide]
EC50 (human CB1 receptors): > 10000 nM | EC50 (human CB2 receptors): 36.9 nM

CCC(CC)(NC(=O)c1cnc(C2CC2)c(OCC2CC2)n1)C(=O)NC [Example 53, 5-Cyclopropyl-6-cyclopropylmethoxy-pyrazine-2-carboxylic acid (1-ethyl-1-methylcarbamoyl-propyl)-amide]
EC50 (human CB1 receptors): > 10000 nM | EC50 (human CB2 receptors): 15.1 nM

Cc1csc(C(C)(C)NC(=O)c2cnc(C3CC3)c(OCC3CC3)n2)n1 [Example 54, 5-Cyclopropyl-6-cyclopropylmethoxy-pyrazine-2-carboxylic acid [1-methyl-1-(4-methyl-thiazol-2-yl)-ethyl]-amide]
EC50 (human CB1 receptors): > 10000 nM | EC50 (human CB2 receptors): 188 nM

Cc1csc(C(C)(C)NC(=O)c2cnc(N3CC(F)(F)C3)c(OCC3CC3)n2)n1 [Example 55, 6-Cyclopropylmethoxy-5-(3,3-difluoro-azetidin-1-yl)-pyrazine-2-carboxylic acid [1-methyl-1-(4-methyl-thiazol-2-yl)-ethyl]-amide]
EC50 (human CB1 receptors): > 10000 nM | EC50 (human CB2 receptors): 22 nM

Cc1nc([C@@H](C)NC(=O)c2cnc(N3CC(F)(F)C3)c(OCC3CC3)n2)no1 [Example 56, 6-Cyclopropylmethoxy-5-(3,3-difluoro-azetidin-1-yl)-pyrazine-2-carboxylic acid [(R)-1-(5-methyl-[1,2,4]oxadiazol-3-yl)-ethyl]amide]
EC50 (human CB1 receptors): > 10000 nM | EC50 (human CB2 receptors): 72.5 nM

CC(C)(NC(=O)c1cnc(C2CC2)c(OCC2CC2)n1)c1noc(N)n1 [Example 57, 5-Cyclopropyl-6-cyclopropylmethoxy-pyrazine-2-carboxylic acid [1-(5-amino-[1,2,4]oxadiazol-3-yl)-1-methyl-ethyl]-amide]
EC50 (human CB1 receptors): > 10000 nM | EC50 (human CB2 receptors): 221 nM

CC(C)(NC(=O)c1cnc(N2CC(F)(F)C2)c(OCC2CC2)n1)c1noc(N)n1 [Example 58, 6-Cyclopropylmethoxy-5-(3,3-difluoro-azetidin-1-yl)-pyrazine-2-carboxylic acid [1-(5-amino-[1,2,4]oxadiazol-3-yl)-1-methyl-ethyl]-amide]
EC50 (human CB1 receptors): > 10000 nM | EC50 (human CB2 receptors): 178 nM

C[C@@](NC(=O)c1cnc(N2CC(F)(F)C2)c(OCC2CC2)n1)(C(N)=O)c1ccccc1 [Example 59, 6-Cyclopropylmethoxy-5-(3,3-difluoro-azetidin-1-yl)-pyrazine-2-carboxylic acid ((S)-1-carbamoyl-1-phenyl-ethyl)-amide]
EC50 (human CB1 receptors): > 10000 nM | EC50 (human CB2 receptors): 49.2 nM

Cc1nc(C(C)(CC2CC2)NC(=O)c2cnc(N3CC(F)(F)C3)c(OCC3CC3)n2)no1 (stereo not shown) [Example 60, 6-Cyclopropylmethoxy-5-(3,3-difluoro-azetidin-1-yl)-pyrazine-2-carboxylic acid [2-cyclopropyl-1-methyl-1-(5-methyl-[1,2,4]oxadiazol-3-yl)-ethyl]-amide]
EC50 (human CB1 receptors): > 10000 nM | EC50 (human CB2 receptors): 14.6 nM

Cc1nc(C(C)(NC(=O)c2cnc(N3CC(F)(F)C3)c(OCC3CC3)n2)C2CC2)no1 (stereo not shown) [Example 61, 6-Cyclopropylmethoxy-5-(3,3-difluoro-azetidin-1-yl)-pyrazine-2-carboxylic acid [1-cyclopropyl-1-(5-methyl-[1,2,4]oxadiazol-3-yl)-ethyl]-amide]
EC50 (human CB1 receptors): > 10000 nM | EC50 (human CB2 receptors): 17.9 nM

Cc1nc(C(C)(NC(=O)c2cnc(C3CC3)c(OCC3CC3)n2)C2CC2)no1 (stereo not shown) [Example 62, 5-Cyclopropyl-6-cyclopropylmethoxy-pyrazine-2-carboxylic acid [1-cyclopropyl-1-(5-methyl-[1,2,4]oxadiazol-3-yl)-ethyl]-amide]
EC50 (human CB1 receptors): 1650 nM | EC50 (human CB2 receptors): 22.8 nM

COC(=O)C(C)(NC(=O)c1cnc(N2CC(F)(F)C2)c(OCC2CC2)n1)C1CC1 (stereo not shown) [Example 80, 2-Cyclopropyl-2-{[6-cyclopropylmethoxy-5-(3,3-difluoro-azetidin-1-yl)-pyrazine-2-carbonyl]-amino}-propionic acid methyl ester]
EC50 (human CB1 receptors): > 10000 nM | EC50 (human CB2 receptors): 0.7 nM

NC(=O)CC1(NC(=O)c2cnc(C3CC3)c(OCC3CC3)n2)COC1 [Example 84, 5-Cyclopropyl-6-cyclopropylmethoxy-pyrazine-2-carboxylic acid (3-carbamoylmethyl-oxetan-3-yl)-amide]
EC50 (human CB1 receptors): > 10000 nM | EC50 (human CB2 receptors): 14.6 nM

NC(=O)CC1(NC(=O)c2cnc(N3CC(F)(F)C3)c(OCC3CC3)n2)COC1 [Example 85, 6-Cyclopropylmethoxy-5-(3,3-difluoro-azetidin-1-yl)-pyrazine-2-carboxylic acid (3-carbamoylmethyl-oxetan-3-yl)-amide]
EC50 (human CB1 receptors): > 10000 nM | EC50 (human CB2 receptors): 5.8 nM

Cc1nc([C@@](C)(NC(=O)c2cnc(N3CC(F)(F)C3)c(OCC3CC3)n2)C2CC2)no1 [Example 86, (+)-6-Cyclopropylmethoxy-5-(3,3-difluoro-azetidin-1-yl)-pyrazine-2-carboxylic acid [1-cyclopropyl-1-(5-methyl-[1,2,4]oxadiazol-3-yl)-ethyl]-amide]
EC50 (human CB1 receptors): > 10000 nM | EC50 (human CB2 receptors): 23.7 nM
